Assay results reported in PubChem BioAssay AID248 (DTP/NCI, 2004).
“And” between values parts separate entries of the source, which are not always exact repeats. Equal entries are not always repeated. Inconclusive results and toxic doses are left out.

Test system: L1210 leukemia ip in BDF1 mice, survival T/C
Assay: NCI In Vivo Anticancer Drug Screen. Data for tumor model L1210 Leukemia (intraperitoneal) in B6D2F1 (BDF1) mice
Conditions: endpoint: mean survival time, higher = longer survival
Method in brief: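 Value reflects the ratio of survival in compound-treated mice to survival in vehicle-treated controls, with both groups carrying the same transplanted tumor.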

[1] = dose: 100.0 mg/kg/injection, schedule: Q01DX009 (ip), vehicle: saline with Tween-80
[2] = dose: 200.0 mg/kg/injection, schedule: Q01DX009 (ip), vehicle: saline with Tween-80
[3] = dose: 400.0 mg/kg/injection, schedule: Q01DX009 (ip), vehicle: saline with Tween-80
[4] = dose: 100.0 mg/kg/injection, schedule: Q01DX009 (ip), vehicle: Klucel (hydroxypropylcellulose) (HPC)
[5] = dose: 100.0 mg/kg/injection, schedule: Q04DX003 (ip), vehicle: Klucel (hydroxypropylcellulose) (HPC)
[6] = dose: 200.0 mg/kg/injection, schedule: Q01DX009 (ip), vehicle: Klucel (hydroxypropylcellulose) (HPC)
[7] = dose: 200.0 mg/kg/injection, schedule: Q04DX003 (ip), vehicle: Klucel (hydroxypropylcellulose) (HPC)
[8] = dose: 400.0 mg/kg/injection, schedule: Q01DX009 (ip), vehicle: Klucel (hydroxypropylcellulose) (HPC)
[9] = dose: 400.0 mg/kg/injection, schedule: Q04DX003 (ip), vehicle: Klucel (hydroxypropylcellulose) (HPC)
[10] = dose: 100.0 mg/kg/injection, schedule: Q04DX003 (ip), vehicle: saline
[11] = dose: 100.0 mg/kg/injection, schedule: Q04DX002 (ip), vehicle: saline with Tween-80
[12] = dose: 100.0 mg/kg/injection, schedule: Q04DX002 (ip), vehicle: Klucel (hydroxypropylcellulose) (HPC)
[13] = dose: 200.0 mg/kg/injection, schedule: Q04DX002 (ip), vehicle: Klucel (hydroxypropylcellulose) (HPC)
[14] = dose: 400.0 mg/kg/injection, schedule: Q04DX002 (ip), vehicle: Klucel (hydroxypropylcellulose) (HPC)

For `O=C1C=C2C(=CCOC2O)O1` (stereo unspecified), the T/C (dose: 0.25 mg/kg/injection, schedule: Q01DX009 (ip), vehicle: Klucel (hydroxypropylcellulose) (HPC)) was 97 % of control, the T/C (dose: 0.5 mg/kg/injection, schedule: Q01DX009 (ip), vehicle: Klucel (hydroxypropylcellulose) (HPC)) was 103 % of control and the T/C (dose: 1.0 mg/kg/injection, schedule: Q01DX009 (ip), vehicle: Klucel (hydroxypropylcellulose) (HPC)) was 109 % of control. For the same molecule, the T/C (dose: 2.0 mg/kg/injection, schedule: Q01DX009 (ip), vehicle: Klucel (hydroxypropylcellulose) (HPC)) was 104 % of control and the T/C (dose: 4.0 mg/kg/injection, schedule: Q01DX009 (ip), vehicle: Klucel (hydroxypropylcellulose) (HPC)) was 101 % of control.
With `O=C1c2ccccc2-c2nc3ccccc3nc21` the T/C (dose: 45.0 mg/kg/injection, schedule: Q01DX009 (ip), vehicle: Klucel (hydroxypropylcellulose) (HPC)) was 95 % of control, the T/C (dose: 90.0 mg/kg/injection, schedule: Q01DX009 (ip), vehicle: Klucel (hydroxypropylcellulose) (HPC)) was 93 % of control and the T/C (dose: 100.0 mg/kg/injection, schedule: Q04DX003 (ip), vehicle: saline sonified) was 101 % of control. The T/C (dose: 180.0 mg/kg/injection, schedule: Q01DX009 (ip), vehicle: Klucel (hydroxypropylcellulose) (HPC)) was 91 % of control, the T/C (dose: 200.0 mg/kg/injection, schedule: Q04DX003 (ip), vehicle: saline sonified) was 97 % of control and the T/C (dose: 400.0 mg/kg/injection, schedule: Q04DX003 (ip), vehicle: saline sonified) was 90 % of control.
`CCSc1ncc(C)c(Cl)n1` was tested, and the T/C (dose: 100.0 mg/kg/injection, schedule: Q01DX009 (ip), vehicle: water) was 103 % of control, the T/C (dose: 100.0 mg/kg/injection, schedule: Q04DX003 (ip), vehicle: water) was 100 % of control and the T/C (dose: 200.0 mg/kg/injection, schedule: Q01DX009 (ip), vehicle: water) was 94 % of control. For the same molecule, the T/C (dose: 200.0 mg/kg/injection, schedule: Q04DX003 (ip), vehicle: water) was 108 % of control, the T/C (dose: 400.0 mg/kg/injection, schedule: Q01DX009 (ip), vehicle: water) was 100 % of control and the T/C (dose: 400.0 mg/kg/injection, schedule: Q04DX003 (ip), vehicle: water) was 100 % of control.
In the case of `OCCNc1ccc(I)cc1`, the T/C [1] is reported as 90 % of control, the T/C [2] is reported as 92 % of control and the T/C [3] is reported as 87 % of control.
`NC1=NN(c2c(Cl)cc(Cl)cc2Cl)C(=O)C1` was tested, and the T/C (dose: 100.0 mg/kg/injection, schedule: Q01DX001 (ip), vehicle: saline) was 96 % of control, the T/C (dose: 200.0 mg/kg/injection, schedule: Q01DX001 (ip), vehicle: saline) was 94 % of control and the T/C (dose: 400.0 mg/kg/injection, schedule: Q01DX001 (ip), vehicle: saline) was 100 % of control.
For `CCOC1C=CC(OC(C)=O)C(COC(C)=O)O1` (stereo unspecified), the T/C [4] was 108 % of control, the T/C [5] was 96 % of control and the T/C [6] was 100 % of control. For the same molecule, the T/C [7] was 96 % of control, the T/C [8] was 104 % of control and the T/C [9] was 94 % of control.
For `CN(C)CCCC1(C#N)c2ccccc2CCc2ccccc21`, the T/C (dose: 6.25 mg/kg/injection, schedule: Q01DX009 (ip), vehicle: saline) was 102 % of control, the T/C (dose: 12.5 mg/kg/injection, schedule: Q01DX009 (ip), vehicle: saline) was 105 % of control and the T/C (dose: 25.0 mg/kg/injection, schedule: Q01DX009 (ip), vehicle: saline) was 103 % of control. The T/C (dose: 25.0 mg/kg/injection, schedule: Q04DX003 (ip), vehicle: saline) was 100 % of control, the T/C (dose: 50.0 mg/kg/injection, schedule: Q01DX009 (ip), vehicle: saline) was 113 % of control and the T/C (dose: 50.0 mg/kg/injection, schedule: Q04DX003 (ip), vehicle: saline) was 100 % of control. For the same molecule, the T/C [10] was 102 % of control.
With `CN1CN(C2CCCCC2)CSC1=S` the T/C (dose: 100.0 mg/kg/injection, schedule: Q01DX001 (ip), vehicle: acetone) was 95 % of control, the T/C (dose: 100.0 mg/kg/injection, schedule: Q04DX003 (ip), vehicle: acetone) was 101 % of control and the T/C [10] was 101 % of control. The T/C (dose: 200.0 mg/kg/injection, schedule: Q01DX001 (ip), vehicle: acetone) was 92 % of control, the T/C (dose: 200.0 mg/kg/injection, schedule: Q04DX003 (ip), vehicle: acetone) was 106 % of control and the T/C (dose: 200.0 mg/kg/injection, schedule: Q04DX003 (ip), vehicle: saline) was 102 % of control. For the same molecule, the T/C (dose: 400.0 mg/kg/injection, schedule: Q01DX001 (ip), vehicle: acetone) was 100 % of control, the T/C (dose: 400.0 mg/kg/injection, schedule: Q04DX003 (ip), vehicle: acetone) was 94 % of control and the T/C (dose: 400.0 mg/kg/injection, schedule: Q04DX003 (ip), vehicle: saline) was 98 % of control.
For `CC(O)c1cccnc1` (stereo unspecified), the T/C (dose: 10.0 mg/kg/injection, schedule: Q01DX009 (ip), vehicle: saline) was 99 % of control, the T/C (dose: 10.0 mg/kg/injection, schedule: Q04DX003 (ip), vehicle: saline) was 97 % of control and the T/C (dose: 20.0 mg/kg/injection, schedule: Q01DX009 (ip), vehicle: saline) was 99 % of control. The T/C (dose: 20.0 mg/kg/injection, schedule: Q04DX003 (ip), vehicle: saline) was 105 % of control, the T/C (dose: 40.0 mg/kg/injection, schedule: Q01DX009 (ip), vehicle: saline) was 97 % of control and the T/C (dose: 40.0 mg/kg/injection, schedule: Q04DX003 (ip), vehicle: saline) was 100 % of control.
With `CC(=O)Oc1cccc(C)c1` the T/C [1] was 104 % of control and the T/C [2] was 106 % of control.
With `CCCCCCOP(=O)(N1CC1)N1CC1` the T/C (dose: 0.62 mg/kg/injection, schedule: Q01DX001 (ip), vehicle: saline) was 102 % of control, the T/C (dose: 1.25 mg/kg/injection, schedule: Q01DX001 (ip), vehicle: saline) was 100 % of control and the T/C (dose: 2.5 mg/kg/injection, schedule: Q01DX001 (ip), vehicle: saline) was 103 % of control. For the same molecule, the T/C (dose: 5.0 mg/kg/injection, schedule: Q01DX001 (ip), vehicle: saline) was 103 % of control, the T/C (dose: 10.0 mg/kg/injection, schedule: Q01DX001 (ip), vehicle: saline) was 152 % of control and the T/C (dose: 20.0 mg/kg/injection, schedule: Q01DX001 (ip), vehicle: saline) was 201 % of control. The T/C (dose: 40.0 mg/kg/injection, schedule: Q01DX001 (ip), vehicle: saline) was 287 % of control, the T/C (dose: 75.0 mg/kg/injection, schedule: Q01DX001 (ip), vehicle: saline) was 267 % of control and the T/C (dose: 150.0 mg/kg/injection, schedule: Q01DX001 (ip), vehicle: saline) was 247 % of control.
With `CC(C)(C)C(=O)CC(=O)C(C)(C)C.CC(C)(C)C(=O)CC(=O)C(C)(C)C.[Cu]` the T/C (dose: 75.0 mg/kg/injection, schedule: Q01DX001 (ip), vehicle: other) was 103 % of control and the T/C (dose: 150.0 mg/kg/injection, schedule: Q01DX001 (ip), vehicle: other) was 94 % of control.
In the case of `CCCCC(=O)Nc1cccc(O)c1`, the T/C [1] is reported as 90 % of control, the T/C [2] is reported as 93 % of control and the T/C [3] is reported as 107 % of control.
For `CCOP(=O)(OCC)OC(C)CC` (stereo unspecified), the T/C [11] was 109 % of control, the T/C (dose: 200.0 mg/kg/injection, schedule: Q04DX002 (ip), vehicle: saline with Tween-80) was 103 % of control and the T/C (dose: 400.0 mg/kg/injection, schedule: Q04DX002 (ip), vehicle: saline with Tween-80) was 106 % of control.
For `CCOc1ccc(P2(=S)SP(=S)(c3ccc(OCC)cc3)S2)cc1` (stereo unspecified), the T/C [1] was 97 % of control, the T/C [12] was 94 % of control and the T/C [2] was 91 % of control. The T/C [13] was 88 % of control, the T/C [3] was 102 % of control and the T/C [14] was 102 % of control.
With `O=C(COCC(=O)N/N=C/c1ccccc1O)N/N=C/c1ccccc1O` the T/C (dose: 100.0 mg/kg/injection, schedule: Q01DX001 (ip), vehicle: Klucel (hydroxypropylcellulose) (HPC)) was 93 % of control, the T/C [4] was 98 % of control and 103 % of control and the T/C [12] was 109 % of control. The T/C [5] was 110 % of control, the T/C (dose: 200.0 mg/kg/injection, schedule: Q01DX001 (ip), vehicle: Klucel (hydroxypropylcellulose) (HPC)) was 92 % of control and the T/C [6] was 94 % of control and 98 % of control. For the same molecule, the T/C [13] was 91 % of control, the T/C [7] was 108 % of control and the T/C (dose: 400.0 mg/kg/injection, schedule: Q01DX001 (ip), vehicle: Klucel (hydroxypropylcellulose) (HPC)) was 91 % of control. The T/C [8] was 95 % of control and 87 % of control, the T/C [14] was 100 % of control and the T/C [9] was 105 % of control.
`CC(CO)CCC(=O)C(C)C1C2(CC3C4CCC5CC(O)CCC5(C)C4CCC31C)SCCS2` (stereo unspecified) was tested, and the T/C (dose: 25.0 mg/kg/injection, schedule: Q04DX002 (ip), vehicle: saline with Tween-80) was 100 % of control, the T/C (dose: 50.0 mg/kg/injection, schedule: Q04DX002 (ip), vehicle: saline with Tween-80) was 100 % of control and the T/C [11] was 96 % of control.
